Measurements reported in patent publication US20250368595A1, “NOVEL MOLECULES” (XENIOPRO GmbH, priority 2018, published 2025).

Tests used:
[1] = system: MDA-MB-231 cells; assay: alamarBlue proliferation assay with MDA-MB-231 cells; type: cell-based, human; details: 20 μM, relative to DMSO basis level 1.0
From the text: The antiproliferative activities of compounds falling under formula (Ia), (Ib) and (Ic), respectively, were investigated on cells or cell lines originating from a disorder of the haematopoietic system, including the myeloid cell compartment and the lymphoid cell compartment (T-cells and B-cells), the neuroendocrine system, the cervix, the breast, the ovaries, the lung, the gastrointestinal tract, and the mucosal epithelium, as well as from the skin epithelium and from the muscle. […] The readout was taken with a multi-well plate-reader in the fluorescence mode with applying a filter for excitation at 560 nm (band width 10 nm) and for emission at 590 nm (band width 10 nm). […]
(§1) The assays were performed in duplicate or more replicates of independent single experiments each containing a six-fold replicate for every condition. For every individual plate, the measured fluorescence intensity values of the conditions with compound treatment were normalized • against the corresponding equally weighted arithmetic mean of the fluorescence intensity values of the six DMSO treated control wells in order to obtain the relative values to a baseline level of 1.0. […]

[2] = system: TT cells; assay: alamarBlue proliferation assay with TT cells; type: cell-based, human; details: relative to DMSO basis level 1.0
From the text: (§2) The antiproliferative activities of compounds falling under formula (Ia), (Ib) and (Ic), respectively, were investigated on cells or cell lines originating from a disorder of the haematopoietic system, including the myeloid cell compartment and the lymphoid cell compartment (T-cells and B-cells), the neuroendocrine system, the cervix, the breast, the ovaries, the lung, the gastrointestinal tract, and the mucosal epithelium, as well as from the skin epithelium and from the muscle. To this end, HL-60 cells, NB-4 cells, HH cells, RPMI-8402 cells, TANQUE cells, TT cells, HeLa cells, MDA-MB-231 cells, FU-OV-1 cells, LOU-NH91 cells, 23132/87 cells, CAL-27 cells, BHY cells, SCC-25 cells, A-431 cells, human primary epidermal keratinocytes (HPEK), and C2C12 cells were seeded into 96-well plates suitable for fluorescence assays (CORNING #3598) at following initial cell numbers: 1000 cells per well for HL-60; 1000 cells per well for NB-4; 5000 cells per well for HH; 5000 cells per well for RPMI-8402; 1500 cells per well for TANOUE; 9000 cells per well for TT; 2000 cells per well for HeLa; 3000 cells per well for MDA-MB-231; 3000 cells per well for FU-OV-1; 4000 cells per well for LOU-NH91; 2000 cells per well for 23132/87; 2000 cells per well for CAL-27; 1500 cells per well for BHY; 1500 cells per well for SCC-25; 700 cells per well for A-431; 1000 cells per well for HPEK; 500 cells per well for C2C12. […] The readout was taken with a multi-well plate-reader in the fluorescence mode with applying a filter for excitation at 560 nm (band width 10 nm) and for emission at 590 nm (band width 10 nm). […]
as §1

[3] = system: TANOUE cells; assay: alamarBlue proliferation assay with TANOUE cells; type: cell-based, human; details: relative to DMSO basis level 1.0
From the text: as §2, §1

[4] = system: C2C12 cells; assay: alamarBlue proliferation assay with C2C12 cells; type: cell-based, murine
From the text: as §2, §1

[5] = system: FU-OV-1 cells; assay: alamarBlue proliferation assay with FU-OV-1 cells; type: cell-based, human; details: relative to DMSO basis level 1.0
From the text: as §2, §1

[6] = system: SCC-25 cells; assay: alamarBlue proliferation assay with SCC-25 cells; type: cell-based, human
From the text: as §2, §1

[7] = system: A-431 cells; assay: alamarBlue proliferation assay with A-431 cells; type: cell-based, human
From the text: as §2, §1

[8] = system: LOU-NH91 cells; assay: alamarBlue proliferation assay with LOU-NH91 cells; type: cell-based, human; details: relative to DMSO basis level 1.0
From the text: as §2, §1

[9] = system: HPEKp cells; assay: alamarBlue proliferation assay with HPEKp cells; type: cell-based, human
From the text: as §2, §1

[10] = system: 23132/87 cells; assay: alamarBlue proliferation assay with 23132/87 cells; type: cell-based, human; details: relative to DMSO basis level 1.0
From the text: as §2, §1

[11] = system: HeLa cells; assay: alamarBlue proliferation assay with HeLa cells; type: cell-based, human; details: relative to DMSO basis level 1.0
From the text: as §2, §1

[12] = system: HH cells; assay: alamarBlue proliferation assay with HH cells; type: cell-based, human; details: relative to DMSO basis level 1.0
From the text: as §2, §1

[13] = system: NB-4 cells; assay: alamarBlue proliferation assay with NB-4 cells; type: cell-based, human; details: relative to DMSO basis level 1.0
From the text: as §2, §1

[14] = system: RPMI-8402 cells; assay: alamarBlue proliferation assay with RPMI-8402 cells; type: cell-based, human; details: relative to DMSO basis level 1.0
From the text: as §2, §1

[15] = system: CAL-27 cells; assay: alamarBlue proliferation assay with CAL-27 cells; type: cell-based, human; details: relative to DMSO basis level 1.0
From the text: as §2, §1

[16] = system: HL-60 cells; assay: alamarBlue proliferation assay with HL-60 cells; type: cell-based, human; details: relative to DMSO basis level 1.0
From the text: as §2, §1

[17] = system: BHY cells; assay: alamarBlue proliferation assay with BHY cells; type: cell-based, human; details: relative to DMSO basis level 1.0
From the text: as §2, §1

Row | SMILES | Activity Range: weighted arithmetic mean (AVEw) of normalized fluorescence intensity [1] | Activity Range: weighted arithmetic mean (AVEw) of normalized fluorescence intensity ([2]; 20 μM) | Activity Range: weighted arithmetic mean (AVEw) of normalized fluorescence intensity ([3]; 20 μM) | Activity Range: weighted arithmetic mean (AVEw) of normalized fluorescence intensity, relative to DMSO basis level of 1.0 ([4]; 20 μM) | Activity Range: weighted arithmetic mean (AVEw) of normalized fluorescence intensity ([5]; 20 μM) | Activity Range: weighted arithmetic mean (AVEw) of normalized fluorescence intensity, relative to DMSO basis level of 1.0 ([6]; 20 μM) | Activity Range: weighted arithmetic mean (AVEw) of normalized fluorescence intensity, relative to DMSO basis level of 1.0 ([7]; 20 μM) | Activity Range: weighted arithmetic mean (AVEw) of normalized fluorescence intensity ([8]; 20 μM) | Activity Range: weighted arithmetic mean (AVEw) of normalized fluorescence intensity, relative to DMSO basis level of 1.0 ([9]; control at 20 μM) | Activity Range: weighted arithmetic mean (AVEw) of normalized fluorescence intensity ([10]; 20 μM) | Activity Range: weighted arithmetic mean (AVEw) of normalized fluorescence intensity ([11]; 20 μM) | Activity Range: weighted arithmetic mean (AVEw) of normalized fluorescence intensity ([12]; 20 μM) | Activity Range: weighted arithmetic mean (AVEw) of normalized fluorescence intensity ([13]; 20 μM) | Activity Range: weighted arithmetic mean (AVEw) of normalized fluorescence intensity ([14]; 20 μM) | Activity Range: weighted arithmetic mean (AVEw) of normalized fluorescence intensity ([15]; 20 μM) | Activity Range: weighted arithmetic mean (AVEw) of normalized fluorescence intensity ([16]; 20 μM) | Activity Range: weighted arithmetic mean (AVEw) of normalized fluorescence intensity ([17]; 20 μM) | other results
1 | CN(Cc1cnc2nc(N)nc(N)c2n1)c1ccc(C(=O)N[C@@H](CCC(=O)O)C(=O)O)cc1 [MTREX, Methotrexate] | 0.6 ± 0.0 | 1.0 ± 0.0 | 0.1 ± 0.0 | 0.1 ± 0.0 | 1.0 ± 0.0 | 0.5 ± 0.1 | 0.2 ± 0.1 | 0.5 ± 0.1 | 0.9 ± 0.0 | 0.3 ± 0.0 | 0.4 ± 0.0 | 0.4 ± 0.1 | 0.1 ± 0.0 | 0.1 ± 0.0 | 0.1 ± 0.0 | 0.1 ± 0.1 | 0.3 ± 0.0 | –
2 | Oc1ccc(C=Cc2cc(O)cc(O)c2)cc1 [RES, Resveratrol] | 0.6 ± 0.0 | 0.9 ± 0.0 | 0.1 ± 0.0 | 0.8 ± 0.0 | 0.7 ± 0.0 | 0.4 ± 0.1 | 0.6 ± 0.1 | 0.9 ± 0.1 | 0.2 ± 0.0 | 0.5 ± 0.1 | 0.9 ± 0.0 | 0.6 ± 0.1 | 0.1 ± 0.0 | 0.6 ± 0.0 | 0.8 ± 0.1 | 0.4 ± 0.1 | 0.5 ± 0.1 | Activity Range: weighted arithmetic mean (AVEw) of normalized fluorescence intensity ([2]; control at 40 μM): 0.7 ± 0.0; Activity Range: weighted arithmetic mean (AVEw) of normalized fluorescence intensity ([3]; control at 40 μM): 0.0 ± 0.0; Activity Range: weighted arithmetic mean (AVEw) of normalized fluorescence intensity, relative to DMSO basis level of 1.0 ([4]; control at 40 μM): 0.2 ± 0.1; Activity Range: weighted arithmetic mean (AVEw) of normalized fluorescence intensity ([5]; control at 40 μM): 0.4 ± 0.0; Activity Range: weighted arithmetic mean (AVEw) of normalized fluorescence intensity, relative to DMSO basis level of 1.0 ([6]; control at 40 μM): 0.1 ± 0.0; Activity Range: weighted arithmetic mean (AVEw) of normalized fluorescence intensity, relative to DMSO basis level of 1.0 ([7]; control at 40 μM): 0.2 ± 0.0; Activity Range: weighted arithmetic mean (AVEw) of normalized fluorescence intensity ([8]; control at 40 μM): 0.7 ± 0.0; Activity Range: weighted arithmetic mean (AVEw) of normalized fluorescence intensity, relative to DMSO basis level of 1.0 ([9]; control at 40 μM): 0.2 ± 0.0; Activity Range: weighted arithmetic mean (AVEw) of normalized fluorescence intensity ([10]; control at 40 μM): 0.2 ± 0.0; Activity Range: weighted arithmetic mean (AVEw) of normalized fluorescence intensity ([11]; control at 40 μM): 0.4 ± 0.1; Activity Range: weighted arithmetic mean (AVEw) of normalized fluorescence intensity ([12]; control at 40 μM): 0.4 ± 0.1; Activity Range: weighted arithmetic mean (AVEw) of normalized fluorescence intensity ([13]; control at 40 μM): 0.0 ± 0.0; Activity Range: weighted arithmetic mean (AVEw) of normalized fluorescence intensity ([14]; control at 40 μM): 0.1 ± 0.0; Activity Range: weighted arithmetic mean (AVEw) of normalized fluorescence intensity ([15]; control at 40 μM): 0.4 ± 0.3; Activity Range: weighted arithmetic mean (AVEw) of normalized fluorescence intensity ([16]; control at 40 μM): 0.2 ± 0.1; Activity Range: weighted arithmetic mean (AVEw) of normalized fluorescence intensity ([17]; control at 40 μM): 0.3 ± 0.0
